Experimental data published in patent publication US20250099622A1, “COMPOSITIONS AND METHODS FOR EXPRESSING THERAPEUTICS” (priority 2022, published 2025).

Tested on: HEK293 cells
Experiment: CNP-Fc ELISA of supernatant of AAV-transduced HEK293 cells
Type: cell-based, Human
Method: C-type natriuretic peptide (CNP) has two isoforms, CNP-22 and CNP-53. Example 2 illustrates that CNP-36 fused with Fe increased the half-life of the CNP and also facilitated in purification and ELISA detection when compared to native (unfused) CNP. Transduction and CNP-Fc expression experiments were performed with three AAV vectors (AMI061, AMI087 and AMI0488). FIG. 1A is the pictorial depiction of the three vectors. FIGS. 1B-F illustrate additional vectors that can encode the CNP or the CNP fusion protein. Enzyme-linked immunoassay (ELISA) was developed for quantifying CNP-Fc fusion proteins in cell culture supernatants. The ELISA assay was used to quantify CNP-Fc expressed in HEK293 cells, human chondrocytes (HCH) cells, and human skeletal muscle cells (hSkMC) upon transduction with one of the three AAV constructs described herein.
Buffer and substrate. Coating buffer: 3.7 g sodium bicarbonate, 0.64 g sodium carbonate in 1 L of Milli Q water, pH 9.6. Stored at RT; Blocking buffer: Commercial Casein blocking buffer in PBS+ added 0.1% Tween20. Stored at 4° C.; Standard diluent: same as blocking buffer; Wash buffer: 1×PBS with 0.1% tween 20 (30 days expiry from date of manufacture); Coating Antibody (Ab): Human CNP Antibody (monoclonal), coating concentration was 2 μg/mL; Detection Ab: Goat pAb anti-human Fc. Diluted up to 1:20,000 final dilution in well. Stored at 4° C.; HRP: Streptavidin-HRP stock of 1 mg/mL, diluted up to 1:10,000. Stored at 4° C.; Substrate: TMB. Stored at 4° C.; and Stop solution: 2 N HCl. Stored at ambient temperature.
• 1. Coat 96-well plate with 2 μg/mL anti-CNP antibody final concentration per well in the coating buffer with a 50 μL volume and cover the plate with sealing cover. Put the plate at 4° C. overnight. • 2. Next day, remove the plate, wash thrice with wash buffer and tap the plate on the paper towel to remove excess solution. • 3. Add 300 μL of blocking buffer to each well using multichannel pipette. […] Add 50 μL stop solution and read plate at 450 nm with 600 as reference within 15 min. […]

Substance: AMI088: purified fusion protein Fc1-(G4S)4-CNP36 (IgG1 Fc), SEQ ID NO: 133
- Concentration (CNP-Fc in HEK293 supernatant 5 days after transduction with 100,000 MOI of AAV2 N54 vector): 75 µg/mL
- CNP-Fc expression compared to other CNP constructs (HEK293 supernatant, 100,000 MOI, 5 days): highest expression
